Results as given in US20190233884A1 (University of Southern California, priority 2016, published 2019).

Tested on: patients with refractory metastatic colorectal cancer (mCRC)
Test: PFS, OS and disease control in the testing (validation) cohort of refractory mCRC patients receiving TAS-102 (n=129, Italy), by baseline characteristics, SNP genotype and toxicity
Assay type: in vivo, human
Details: validation cohort
Method: All patients underwent the treatment in salvage-line setting. […]
Genomic DNA was extracted from peripheral whole blood in patients of all cohorts using the QIAmp Kit (Qiagen, Valencia, Calif., USA) according to the manufacturer's protocol (www.qiagen.com). The candidate SNPs were genotyped using PCR-based direct DNA sequence analysis by ABI 3100A Capillary Genetic Analyzer and Sequencing Scanner v1.0 (Applied Biosystems). Amplification of extracted DNA was carried out using both forward and reverse primers for each gene polymorphism as shown in Table 1. […] The investigators analyzing SNPs were blinded to the clinical data of the study patients.
The primary endpoint in this study was progression-free survival (PFS), and the secondary endpoints were overall survival (OS) and disease control rate (DCR). PFS was calculated from the date of starting treatment to the first observation of disease progression or death from any cause. If a patient had no disease progression or death, PFS was censored at the date of last follow up. OS was calculated from the date of starting treatment until the date of death from any cause or the date of the last follow-up, at which point OS was censored. The disease control rate (DCR) was defined as the proportion of patients who achieved a stable disease (SD) or […] according to RECISTv1.1. Chi-square test was used to examine the difference in baseline patient characteristics among the three cohorts. Allelic distribution of all SNPs by ethnicity for deviation from Hardy-Weinberg equilibrium and the allelic frequencies of SNPs were tested using the Chi-square tests with one degree of freedom. The associations between candidate SNPs and disease control, and toxicities were examined using contingency tables and Fisher's exact test. The associations of SNPs with PFS and OS were analysed using Kaplan-Meier curves and the log-rank test. Because the true mode of inheritance of candidate SNPs was not established yet, a codominant or dominant genetic model if appropriate was considered.
All patients underwent the treatment in salvage-line setting. […] In all patients, adverse events were graded according to the Common Terminology Criteria for Adverse Events, version 4.0. […]
Genomic DNA was extracted from peripheral whole blood in patients of all cohorts using the QIAmp Kit (Qiagen, Valencia, Calif., USA) according to the manufacturer's protocol (www.qiagen.com). The candidate SNPs were tested using PCR-based direct DNA sequence analysis by ABI 3100A Capillary Genetic Analyzer and Sequencing Scanner v1.0 (Applied Biosystems). […] The investigators analyzing SNPs were blinded to the clinical data.
The primary endpoint in this study was progression-free survival (PFS), and the secondary endpoints were overall survival (OS) and disease control rate (DCR).

[1] = ATM rs609429 C/G vs C/C (Ref.), multivariable
[2] = ATM rs609429 C/G vs C/C (Ref.), univariate
[3] = ATM rs609429 G/G vs C/C (Ref.), multivariable
[4] = ATM rs609429 G/G vs C/C (Ref.), univariate
[5] = Adjuvant Oxa No vs Yes (Ref.), univariate
[6] = Adjuvant history No vs Yes (Ref.), univariate
[7] = Age group ≥61 vs <61 (Ref.), univariate
[8] = BRAF status Mutant vs Wild type (Ref.), univariate
[9] = CHEK2 rs2267130 Any C vs T/T (Ref.), multivariable
[10] = CHEK2 rs2267130 Any C vs T/T (Ref.), univariate
[11] = CHEK2 rs2267130 C/C vs T/T (Ref.), multivariable
[12] = CHEK2 rs2267130 C/C vs T/T (Ref.), univariate
[13] = CHEK2 rs2267130 T/C vs T/T (Ref.), multivariable
[14] = CHEK2 rs2267130 T/C vs T/T (Ref.), univariate
[15] = Grading 3 vs 1-2 (Ref.), univariate
[16] = LN metastasis No vs Yes (Ref.), univariate
[17] = Liver metastasis No vs Yes (Ref.), univariate
[18] = Lung metastasis No vs Yes (Ref.), univariate
[19] = Mucinous histology No vs Yes (Ref.), univariate
[20] = Number of metastases >2 vs ≤2 (Ref.), univariate

Substance: Trifluridine/tipiracil [TAS-102]
- Disease Control CR/PR/SD, patients n (%) (ATM rs609429 C/G): 20 (32%)
- Median PFS (95% CI) (ATM rs609429 C/G): 2.0 (1.9, 2.3) months
- PD, patients n (%) (ATM rs609429 C/G): 43 (68%)
- HR OS (95% CI) [1]: 0.71 (0.39, 1.30)
- HR PFS (95% CI) [1]: 0.77 (0.50, 1.20)
- HR OS (95% CI) [2]: 0.71 (0.40, 1.26)
- HR PFS (95% CI) [2]: 0.76 (0.50, 1.16)
- Disease Control CR/PR/SD, patients n (%) (ATM rs609429 G/G): 6 (40%)
- Median OS (95% CI) (ATM rs609429 G/G): 5.8 (2.7, 7.1+) months
- Median PFS (95% CI) (ATM rs609429 G/G): 2.0 (1.2, 6.1) months
- PD, patients n (%) (ATM rs609429 G/G): 9 (60%)
- HR OS (95% CI) [3]: 1.43 (0.56, 3.65)
- HR PFS (95% CI) [3]: 1.32 (0.67, 2.59)
- HR OS (95% CI) [4]: 0.82 (0.34, 2.00)
- HR PFS (95% CI) [4]: 0.85 (0.45, 1.63)
- Median OS (Adjuvant Oxa No): 5.8 months
- Median PFS (Adjuvant Oxa No): 1.9 months
- HR OS [5]: 1.17
- HR PFS [5]: 1.06
- Median OS (Adjuvant Oxa Yes): 8.5+ months
- Median PFS (Adjuvant Oxa Yes): 2.0 months
- Median OS (Adjuvant history No): 5.5 months
- Median PFS (Adjuvant history No): 1.9 months
- HR OS [6]: 1.23
- HR PFS [6]: 1.25
- Median OS (Adjuvant history Yes): 8.5+ months
- Median PFS (Adjuvant history Yes): 2.0 months
- Median OS (Age group <61): 4.4 months
- Median PFS (Age group <61): 1.9 months
- Median OS (Age group ≥61): 9.0 months
- Median PFS (Age group ≥61): 2.0 months
- HR OS [7]: 0.56
- HR PFS [7]: 0.61
- Median OS (BRAF status Mutant): 3.3 months
- Median PFS (BRAF status Mutant): 1.8 months
- HR OS [8]: 2.38
- HR PFS [8]: 1.40
- Median OS (BRAF status Wild type): 5.8 months
- Median PFS (BRAF status Wild type): 2.0 months
- Disease Control CR/PR/SD, patients n (%) (CHEK2 rs2267130 Any C): 29 (31%)
- Median OS (95% CI) (CHEK2 rs2267130 Any C): 5.5 (4.4, 8.7+) months
- Median PFS (95% CI) (CHEK2 rs2267130 Any C): 2.0 (1.8, 2.3) months
- PD, patients n (%) (CHEK2 rs2267130 Any C): 65 (69%)
- HR OS (95% CI) [9]: 0.70 (0.38, 1.30)
- HR PFS (95% CI) [9]: 1.05 (0.66, 1.67)
- HR OS (95% CI) [10]: 0.94 (0.52, 1.69)
- HR PFS (95% CI) [10]: 1.10 (0.71, 1.72)
- Disease Control CR/PR/SD, patients n (%) (CHEK2 rs2267130 C/C): 9 (29%)
- Median OS (95% CI) (CHEK2 rs2267130 C/C): 5.4 (3.9, 7.1+) months
- Median PFS (95% CI) (CHEK2 rs2267130 C/C): 2.0 (1.8, 2.4) months
- PD, patients n (%) (CHEK2 rs2267130 C/C): 22 (71%)
- HR OS (95% CI) [11]: 0.48 (0.21, 1.09)
- HR PFS (95% CI) [11]: 0.87 (0.49, 1.54)
- HR OS (95% CI) [12]: 0.95 (0.45, 2.00)
- HR PFS (95% CI) [12]: 1.08 (0.62, 1.86)
- Disease Control CR/PR/SD, patients n (%) (CHEK2 rs2267130 T/C): 20 (32%)
- Median PFS (95% CI) (CHEK2 rs2267130 T/C): 2.0 (1.7, 2.3) months
- PD, patients n (%) (CHEK2 rs2267130 T/C): 43 (68%)
- HR OS (95% CI) [13]: 0.83 (0.44, 1.58)
- HR PFS (95% CI) [13]: 1.17 (0.72, 1.91)
- HR OS (95% CI) [14]: 0.93 (0.50, 1.75)
- HR PFS (95% CI) [14]: 1.12 (0.69, 1.79)
- Disease Control CR/PR/SD, patients n (%) (CHEK2 rs2267130 T/T): 8 (24%)
- Median OS (95% CI) (CHEK2 rs2267130 T/T): 5.8 (3.7, 9.0+) months
- Median PFS (95% CI) (CHEK2 rs2267130 T/T): 1.9 (1.9, 2.0) months
- PD, patients n (%) (CHEK2 rs2267130 T/T): 26 (76%)
- Median OS (Grading 1-2): 9.0 months
- Median PFS (Grading 1-2): 2.1 months
- Median OS (Grading 3): 5.3 months
- Median PFS (Grading 3): 1.9 months
- HR OS [15]: 1.38
- HR PFS [15]: 1.15
- Median OS (LN metastasis No): 5.4 months
- Median PFS (LN metastasis No): 2.0 months
- HR OS [16]: 1.24
- HR PFS [16]: 0.99
- Median OS (LN metastasis Yes): 8.8+ months
- Median PFS (LN metastasis Yes): 2.0 months
- Median OS (Liver metastasis No): 8.7+ months
- Median PFS (Liver metastasis No): 2.4 months
- HR OS [17]: 0.69
- HR PFS [17]: 0.52
- Median OS (Liver metastasis Yes): 5.4 months
- Median PFS (Liver metastasis Yes): 1.9 months
- Median OS (Lung metastasis No): 4.1 months
- Median PFS (Lung metastasis No): 1.9 months
- HR OS [18]: 1.46
- HR PFS [18]: 1.62
- Median OS (Lung metastasis Yes): 8.8+ months
- Median PFS (Lung metastasis Yes): 2.1 months
- Median OS (Mucinous histology No): 9.0 months
- Median PFS (Mucinous histology No): 2.0 months
- HR OS [19]: 0.72
- HR PFS [19]: 0.97
- Median OS (Mucinous histology Yes): 5.5 months
- Median PFS (Mucinous histology Yes): 1.9 months
- Median OS (Number of metastases >2): 8.8+ months
- Median PFS (Number of metastases >2): 2.0 months
- HR OS [20]: 0.83
- HR PFS [20]: 1.18
- Median OS (Number of metastases ≤2): 5.5 months
- Median PFS (Number of metastases ≤2): 2.0 months
- Median OS (Performance status ECOG 0): 9.0 months
- Median PFS (Performance status ECOG 0): 2.0 months
- Median OS (Performance status ECOG 1+): 4.1 months
- Median PFS (Performance status ECOG 1+): 1.9 months
